Usually IC50 stands for the concentration that inhibits the measured activity by half. Low readings indicate greater potency in that assay, high ones weaker potency in that assay.

The results in this text go back to BindingDB's records for patent US20240109915 (Pfizer, 2024).

This assay addresses Acetyl-CoA carboxylase 1 (Homo sapiens, UniProt Q13085). The assay can be described thus: Inhibition of the Activity of ACC1. On the procedure:
The direct inhibition of ACC1 for the compounds of the present invention was determined using preparations of recombinant human ACC1 (rhACC1) (SEQ ID NO. 1). Preparation of rhACC1: Two liters of SF9 cells, infected with recombinant baculovirus containing full length human ACC1 cDNA, were suspended in ice-cold lysis buffer (25 mM Tris, pH 7.5; 150 mM NaCl; 10% glycerol; 5 mM imidazole (EMD Bioscience; Gibbstown, NJ); 2 mM TCEP (BioVectra; Charlottetown, Canada); Benzonase nuclease (10000 U/100 g cell paste; Novagen; Madison, WI); EDTA-free protease inhibitor cocktail (1 tab/50 ml; Roche Diagnostics; Mannheim, Germany). Cells were lysed by 3 cycles of freeze-thaw and centrifuged at 40,000×g for 40 minutes (4° C.). Supernatant was directly loaded onto a HisTrap FF crude column (GE Healthcare; Piscataway, NJ) and eluted with an imidazole gradient up to 0.5 M over 20 column volumes (CV). ACC1-containing fractions were pooled and diluted 1:5 with 25 mM Tris, pH 7.5, 2 mM TCEP, 10% glycerol and direct loaded onto a CaptoQ (GE Healthcare) column and eluted with an NaCl gradient up to 1 M over 20 CV's. Phosphate groups were removed from purified ACC1 by incubation with lambda phosphatase (100 U/10 μM target protein; New England Biolabs; Beverly, MA) for 14 hours at 4° C.; okadaic acid was added (1 μM final concentration; Roche Diagnostics) to inhibit the phosphatase. […]

Compound `Cn1ncc2c(Cl)cc(C(=O)N3CCC4(CC3)CC(=O)c3nc(C(C)(C)C)sc3C4)cc21` [US20240109915, Example 73] yielded an IC50 of 22.9 nM. This lies in the double-digit nanomolar range.

`Cc1nn(C)c2c(Cl)cc(C(=O)N3CCC4(CC3)CC(=O)c3nc(C(C)(C)C)sc3C4)cc12` [US20240109915, Example 84] came in with an IC50 of 92.6 nM.
